In series [1] the test system is Alternaria solani. Nature of the series: Alternaria solani/tomato/Preventive (Action against Alternaria on Tomato). The class given is in vivo. As to conditions: preventive spray, tomato plants cv. Roter Gnom, inoculated two days after application, assessed after 4 days, untreated controls infected over 80%, read-out: inhibit fungal infestation. On the procedure:
Alternaria solani/tomato/Preventive (Action against Alternaria on Tomato) 4 weeks old tomato plants cv. Roter Gnom are treated with the formulated test compound in a spray chamber. Two days after application tomato plants are inoculated by spraying a spore suspension on the test plants. After an incubation period of 4 days at 22° C./18° C. and 95% r. h. in a greenhouse the disease incidence is assessed.

For series [2], the system named is Botrytis cinerea. The series is described as follows: Botrytis cinerea/tomato/preventive (Action against Botrytis on Tomato). The class given is in vivo. Conditions: preventive spray, tomato plants cv. Roter Gnom, inoculated two days after application, assessed after 3 days, untreated controls infected over 80%, read-out: inhibit fungal infestation. On the procedure: Botrytis cinerea/tomato/preventive (Action against Botrytis on Tomato) 4 weeks old tomato plants cv. Roter Gnom are treated with the formulated test compound in a spray chamber. Two days after application tomato plants are inoculated by spraying a spore suspension on the test plants. After an incubation period of 3 days at 20° C. and 95% r. h. in a greenhouse the disease incidence is assessed.

Series [3] deals with Magnaporthe grisea (Pyricularia oryzae). Nature of the series: whole plant or invertebrate. The format is in vivo. Conditions: read-out: inhibit fungal infestation.
Series [4] deals with Septoria tritici. The series is described as follows: Sentoria tritici/wheat/Preventive (Action against Septoria Leaf Spot on Wheat). Conditions: Zymoseptoria tritici, preventive spray, wheat plants cv. Riband, inoculated one day after application, assessed 16-18 days after inoculation, untreated controls infected over 80%, read-out: inhibits fungal infestation. The class given is in vivo. As to the method:
Sentoria tritici/wheat/Preventive (Action against Septoria Leaf Spot on Wheat) 2 weeks old wheat plants cv. Riband are treated with the formulated test compound in a spray chamber. One day after application wheat plants are inoculated by spraying a spore suspension (10^6 conidia/ml) on the test plants. After an incubation period of 1 day at 22° C./21° C. and 95% r. h. plants are kept at 22° C./21° C. and 70% r.h. in a greenhouse. The disease incidence is assessed 16-18 days after inoculation.

Series [5] has as its system Puccinia recondita. Nature of the series: Puccinia recondita/wheat/preventive (Action against Brown Rust on Wheat). The format is in vivo. Conditions: preventive spray, wheat plants cv. Arina, inoculated one day after application, assessed 11 days after inoculation, untreated controls infected over 80%, read-out: inhibits fungal infestation. As to the method: Puccinia recondita/wheat/preventive (Action against Brown Rust on Wheat) 1 week old wheat plants cv. Arina are treated with the formulated test compound in a spray chamber. One day after application wheat plants are inoculated by spraying a spore suspension (1×105 uredospores/ml) on the test plants. After an incubation period of 1 day at 20° C. and 95% r. h. plants are kept for 10 days 20° C./18° C. (day/night) and 60% r.h. in a greenhouse. The disease incidence is assessed 11 days after inoculation.

The subject of series [6] is Pyrenophora teres (Helminthosporium teres). The series is described as follows: Pyrenophora teres (Helminthosporium teres)/barley/preventive (Action against Net Blotch on Barley). The format is in vivo. Conditions: preventive spray, barley plants cv. Regina, inoculated two days after application, assessed after 4 days, untreated controls infected over 80%, read-out: inhibit fungal infestation. As to the method:
Pyrenophora teres (Helminthosporium teres)/barley/preventive (Action against Net Blotch on Barley) 1-week-old barley plants cv. Regina are treated with the formulated test compound in a spray chamber. Two days after application barley plants are inoculated by spraying a spore suspension (2.6×10^4 conidia/ml) on the test plants. After an incubation period of 4 days at 20° C. and 95% r. h. the disease incidence is assessed.

Series [7] has as its system Uncinula necator. The series is described as follows: Uncinula necator/grape/preventive (Action against Powdery Mildew on Grape). The format is in vivo. As to conditions: Erysiphe necator, preventive spray, grape seedlings cv. Gutedel, inoculated one day after application, assessed after 7 days, untreated controls infected over 80%, read-out: inhibit fungal infestation. On the procedure:
Uncinula necator/grape/preventive (Action against Powdery Mildew on Grape) 5 weeks old grape seedlings cv. Gutedel are treated with the formulated test compound in a spray chamber. One day after application grape plants are inoculated by shaking plants infected with grape powdery mildew above the test plants. After an incubation period of 7 days at 24° C./22° C. and 70% r. h. under a light regime of 14/10 h (light/dark) the disease incidence is assessed.

Each structure is given as a SMILES string.

The melting point is the temperature, or range, at which the solid turns liquid. In the case of `Fc1cc(F)c(-c2c(Cl)nnc(Cl)c2-c2cccc(Cl)c2)c(F)c1` [I.b. 198, 3,6-dichloro-4-(3-chloro-phenyl)-5-(2,4,6-trifluoro-phenyl)-pyridazine], the melting point was in the range of 138 to 140 °C. Also, in series [1], the inhibition at 200 ppm was not below 80%. Further, the inhibition at 200 ppm in series [2] was not below 80%. Also, the inhibition at 200 ppm in series [3] was not below 80%. For the same compound, in series [4], the inhibition at 200 ppm was not below 80%.
Consider `Fc1cc(F)c(-c2c(Cl)nnc(Cl)c2-c2cccc(Br)c2)c(F)c1` [I.c. 198, 3,6-dichloro-4-(3-bromo-phenyl)-5-(2,4,6-trifluoro-phenyl)-pyridazine], for which the melting point was 120 to 121 °C. Moreover, the inhibition at 200 ppm in series [5] is not below 80%. Besides, the inhibition at 200 ppm in series [6] is not below 80%.
In turn, `Cc1cccc(-c2c(Cl)nnc(Cl)c2-c2c(F)cc(F)cc2F)c1` [I.d. 198, 3,6-dichloro-4-m-tolyl-5-(2,4,6-trifluoro-phenyl)-pyridazine] came in with a melting point of 121 to 123 °C. For the same compound, the inhibition at 200 ppm in series [6] is not below 80%. Besides, the inhibition at 200 ppm in series [4] was not below 80%.
Turning to `Oc1nnc(O)c(-c2c(F)cc(F)cc2F)c1-c1cccc(C(F)(F)F)c1` [I.e.196, 4-(3-trifluoromethyl-phenyl)-5-(2,4,6-trifluoro-phenyl)-pyridazine-3,6-diol], the melting point fell in the range of 259 to 260 °C.
Turning to `Fc1cc(F)c(-c2c(Cl)nnc(Cl)c2-c2cccc(C(F)(F)F)c2)c(F)c1` [I.e. 198, 3,6-dichloro-4-(3-trifluoromethyl-phenyl)-5-(2,4,6-trifluoro-phenyl)-pyridazine], the melting point is 117 to 119 °C. For the same compound, the inhibition at 200 ppm in series [2] was not below 80%. Also, in series [7], the inhibition at 200 ppm was not below 80%.
In turn, `Fc1ccc(-c2c(F)nnc(F)c2-c2c(F)cc(F)cc2F)cc1` [I.j. 197, 3,6-difluoro-4-(4-fluoro-phenyl)-5-(2,4,6-trifluoro-phenyl)-pyridazine] yielded a melting point of 74 to 76 °C. For the same compound, in series [1], the inhibition at 200 ppm was not below 80%. For the same compound, the inhibition at 200 ppm in series [2] was not below 80%. Further, the inhibition at 200 ppm in series [5] is not below 80%. Further, the inhibition at 200 ppm in series [6] was not below 80%. In addition, the inhibition at 200 ppm in series [4] was not below 80%.
`COc1nnc(Cl)c(-c2c(F)cc(F)cc2F)c1-c1ccc(F)cc1` [I.j. 199, 3-chloro-5-(4-fluoro-phenyl)-6-methoxy-4-(2,4,6-trifluoro-phenyl)-pyridazine] came in with a melting point of 146 to 151 °C. Further, the inhibition at 200 ppm in series [1] is not below 80%. The inhibition at 200 ppm in series [2] is not below 80%. Also, the inhibition at 200 ppm in series [3] is not below 80%. In addition, in series [6], the inhibition at 200 ppm was not below 80%. Moreover, the inhibition at 200 ppm in series [4] was not below 80%. For the same compound, in series [7], the inhibition at 200 ppm was not below 80%.
On to `Oc1nnc(O)c(-c2c(F)cccc2Cl)c1-c1ccc(Cl)cc1` [I.k.076, 4-(4-chloro-phenyl)-5-(2-chloro-6-fluoro-phenyl)-pyridazine-3,6-diol], for which the melting point was 144 to 149 °C.
Regarding `Fc1cccc(Cl)c1-c1c(Cl)nnc(Cl)c1-c1ccc(Cl)cc1` [I.k.078, 3,6-dichloro-4-(2-chloro-6-fluoro-phenyl)-5-(4-chloro-phenyl)-pyridazine], the melting point lay in the range of 144 to 145 °C.
With `COc1nnc(Cl)c(-c2c(F)cccc2Cl)c1-c1ccc(Cl)cc1` [I.k.079, 3-chloro-4-(2-chloro-6-fluoro-phenyl)-5-(4-chloro-phenyl)-6-methoxy-pyridazine], the melting point fell in the range of 137 to 141 °C.
Still for that read-out and setting: the result for `Oc1nnc(O)c(-c2c(F)cc(F)cc2F)c1-c1ccc(Cl)cc1` [I.k.196, 4-(4-chloro-phenyl)-5-(2,4,6-trifluoro-phenyl)-pyridazine-3,6-diol] reads 158 to 164 °C.
Still for that read-out and setting: the result for `O=c1[nH][nH]c(=O)c(-c2c(F)cc(F)cc2F)c1-c1ccc(Br)cc1` [I.l.196, 4-(4-bromophenyl)-5-(2,4,6-trifluorophenyl)-1,2-dihydro-pyridazine-3,6-dione] reads 272 to 274 °C.
For `Fc1cc(F)c(-c2c(F)nnc(F)c2-c2ccc(Br)cc2)c(F)c1` [I.l. 197, 4-(4-bromophenyl)-3,6-difluoro-5-(2,4,6-trifluorophenyl)-pyridazine], the melting point lay within 132 to 133 °C. Besides, the inhibition at 200 ppm in series [1] was not below 80%. The inhibition at 200 ppm in series [5] was not below 80%. The inhibition at 200 ppm in series [3] was not below 80%. Also, in series [6], the inhibition at 200 ppm was not below 80%. Moreover, the inhibition at 200 ppm in series [4] is not below 80%. Besides, the inhibition at 200 ppm in series [7] is not below 80%.
For the compound `Fc1cc(F)c(-c2c(Cl)nnc(Cl)c2-c2ccc(Br)cc2)c(F)c1` [I.l. 198, 4-(4-bromophenyl)-3,6-dichloro-5-(2,4,6-trifluorophenyl)-pyridazine], the melting point was 134 to 137 °C. Further, the inhibition at 200 ppm in series [1] was not below 80%. The inhibition at 200 ppm in series [2] is not below 80%. The inhibition at 200 ppm in series [5] was not below 80%. Also, the inhibition at 200 ppm in series [3] was not below 80%. Besides, the inhibition at 200 ppm in series [6] is not below 80%. In series [4], the inhibition at 200 ppm was not below 80%.
On to `Cc1ccc(-c2c(Cl)nnc(Cl)c2-c2c(F)cc(F)cc2F)cc1` [I.m. 198, 3,6-dichloro-4-p-tolyl-5-(2,4,6-trifluoro-phenyl)-pyridazine], for which the inhibition at 200 ppm in series [1], in series [2], in series [5], in series [6], in series [4] and in series [7] was not below 80% throughout.
`COc1nnc(Cl)c(-c2c(F)cc(F)cc2F)c1-c1ccc(C)cc1` [I.m. 199, 3-chloro-6-methoxy-5-p-tolyl-4-(2,4,6-trifluoro-phenyl)-pyridazine]: the melting point is 126 to 128 °C. Moreover, in series [5], the inhibition at 200 ppm was not below 80%. For the same compound, the inhibition at 200 ppm in series [4] was not below 80%.
`CCc1ccc(-c2c(O)nnc(O)c2-c2c(F)cc(F)cc2F)cc1` [I.o.196, 4-(4-ethyl-phenyl)-5-(2,4,6-trifluoro-phenyl)-pyridazine-3,6-diol] returned a melting point of 278 to 289 °C.
`CCc1ccc(-c2c(OC)nnc(Cl)c2-c2c(F)cc(F)cc2F)cc1` [I.o. 199, 3-chloro-5-(4-ethyl-phenyl)-6-methoxy-4-(2,4,6-trifluoro-phenyl)-pyridazine]: the melting point lay within 109 to 112 °C. In series [1], the inhibition at 200 ppm was not below 80%. For the same compound, in series [5], the inhibition at 200 ppm was not below 80%. Besides, the inhibition at 200 ppm in series [3] was not below 80%. Also, the inhibition at 200 ppm in series [4] is not below 80%. In series [7], the inhibition at 200 ppm is not below 80%.
Compound `COc1ccc(-c2c(O)nnc(O)c2-c2c(F)cc(F)cc2F)cc1` [I.p.196, 4-(4-methoxy-phenyl)-5-(2,4,6-trifluoro-phenyl)-pyridazine-3,6-diol] showed a melting point of 287 to 294 °C.
On to `COc1ccc(-c2c(Cl)nnc(Cl)c2-c2c(F)cc(F)cc2F)cc1` [I.p. 198, 3,6-dichloro-4-(4-methoxy-phenyl)-5-(2,4,6-trifluoro-phenyl)-pyridazine], for which the melting point lay in the range of 106 to 109 °C. In series [1], the inhibition at 200 ppm is not below 80%. Also, in series [2], the inhibition at 200 ppm was not below 80%. Also, the inhibition at 200 ppm in series [3] is not below 80%. Besides, the inhibition at 200 ppm in series [4] is not below 80%. The inhibition at 200 ppm in series [7] is not below 80%.
With `Fc1cc(F)c(-c2c(Cl)nnc(Cl)c2-c2ccc(Cl)c(Cl)c2)c(F)c1` [I.v. 198, 3,6-dichloro-4-(3,4-dichloro-phenyl)-5-(2,4,6-trifluoro-phenyl)-pyridazine], the melting point lay within 139 to 140 °C. For the same compound, in series [1], the inhibition at 200 ppm is not below 80%. Besides, the inhibition at 200 ppm in series [2] is not below 80%. In addition, the inhibition at 200 ppm in series [6] was not below 80%. For the same compound, in series [4], the inhibition at 200 ppm was not below 80%.
